Source: PMC10126473 (Frontiers in Pharmacology, 2023)

Columns and labels:
[1] = Metabolic stability and biotransformation in liver microsomes; settings: for Liver Vmax: in vitro
Protocol: The incubation was carried out at 37°C for 15, 30, and 60 min. The reaction in plasma or liver microsomes was quenched by adding 200 μL of cold acetonitrile (containing 100 ng/mL tolbutamide as internal standard).
The mc was the microsome concentration used in the incubation (0.5 mg/mL). The substrate disappearance half-life (t1/2) was estimated by regression analysis of the semi-logarithmic (ln Conc vs. time) plots. […] The Vmax, in vitro,app, PDN-total and Km for PDN depletion in liver microsomes were estimated by the Michaelis-Menten model using GraphPad Prism version 8.

[2] = Mouse PK and tissue distribution study (non-compartmental analysis); settings: male, C57BL/6, mouse, in vivo; for Cmax: Cmax Obs
Protocol: The in-life study (Animal Study Protocol Number: NIH ORS-51) was conducted at the NIH Animal Facility by the Division of Veterinary Resources (DVR, Bethesda, MD). In this study, 25–35 g male C57BL/6 mice (Charles River Laboratories, Frederick, MD) were used. For the IV groups, 66 mice (33 mice per dosing group, 3 mice per timepoint) were used for a single bolus IV dose of 3 or 10 mg/kg of PDN via tail vein injection. […] The IV and PO doses were selected to obtain a complete concentration profile in plasma and tissues, based on a preliminary study. Animals were not fasted in this study. […] All dosing solutions were freshly prepared on the day of dosing. At designated time points, blood samples were collected, and mice were euthanized with CO2 in accordance with NIH ARAC Guidelines after blood collection. The death was ensured by cervical dislocation or transthoracic puncture. Lung, liver, adipose, brain, heart, small intestine, kidney, skeletal muscle, and spleen samples were obtained from mice. […] Tissue samples were rinsed with cold saline, dried on filtrate paper, weighed, and snap frozen by placing into dry ice after collection. All samples were stored at −80°C until the analysis. All blood samples were collected in K2EDTA tubes and centrifuged at 3000 g for 10 min at 4°C to obtain plasma. Plasma samples were transferred to tubes preloaded with NaF (final concentration at 5 mM in 200 µL plasma) and stored at −80°C until analysis.
For fat tissue, an additional 3-fold volume of acetonitrile was added to the water homogenate and was vortexed in a shaker for another 30 min.
A 10 μ aliquot of samples, blank controls (blank plasma or tissue homogenates), quality controls (QC), and standards were added into 200 μ acetonitrile solution with 100 ng/mL tolbutamide (internal standard, IS). All samples were then thoroughly shaken for 5 min to precipitate proteins. The samples were centrifuged at 3000 rpm and 4°C for 30 min. The supernatant was injected for UPLC-MS/MS analysis.
The mobile phase consisted of 0.1% formic acid in water (A) and 0.1% formic acid in acetonitrile (B), the flow rate was 600 μL/min. […] All analyses were carried out using a Waters Acquity I-Class UPLC interfaced with a Waters Xevo TQ-S mass spectrometer. The mass spectrometer multiple reaction monitoring (MRM) experiment was operated with an ESI source at negative mode with spray voltage of 1 kV, and temperature of 600°C. Both Q1 and Q3 were set at unit resolution. […] The correlation coefficients of the calibration curves were all greater than 0.99. […] The linear range, precision and accuracy of QCs in various tissues and plasma are shown in Supplementary Table S1 and Supplementary Table S2.
The area under the concentration vs. time curve (AUC) was calculated using the linear trapezoidal method. The terminal rate constant (λ) was obtained from the slope of at least three data points of the apparent terminal phase of the log linear concentration vs. time curve. AUC0–∞ was estimated as the sum of the AUC0–t (where t is the time of the last measurable concentration) and Ct/λ. […] Bioavailability (F) was calculated using ratios of dose-normalized AUC of PO and IV administration.

## O=C(Nc1ccc([N+](=O)[O-])cc1Cl)c1cc(Cl)ccc1OC(=O)N1CCNCC1 [PDN]
[1]; conversion to Nc, mouse
  Liver Vmax: 0.00095 mg/s/mg microsomes
[1]; conversion to Nc, mouse, in vitro (in vitro liver parameters)
  Gut Vmax: 0.00095 mg/s/mg microsomes
[1]; conversion to Others, mouse
  Liver Vmax: 0.1484 mg/s/mg microsomes
[1]; mouse liver microsomes
  Vmax in vitro,app, PDN-total: 1.327 ± 0.106 nmol/min/mg
[1]; mouse, pH 7.4
  Km: 20.2 ± 3.31 µM
[2]
  Kp: 8 to 44
[2]; iv, 3 mg/kg
  AUC(0-inf): 1190 ng·h/mL
[2]; iv, 3 mg/kg, CLp Obs, mice, IV 3 mg/kg PDN, plasma
  clearance: 1.05 mL/min
[2]; iv, 3 mg/kg, Vdss Obs, mice, IV 3 mg/kg PDN, plasma
  Vd: 0.28 L
[2]; iv, 3 mg/kg, t1/2 Obs, mice, IV 3 mg/kg PDN, adipose
  half-life: 167 min
[2]; iv, 3 mg/kg, t1/2 Obs, mice, IV 3 mg/kg PDN, brain
  half-life: 134 min
[2]; iv, 3 mg/kg, t1/2 Obs, mice, IV 3 mg/kg PDN, heart
  half-life: 103 min
[2]; iv, 3 mg/kg, t1/2 Obs, mice, IV 3 mg/kg PDN, intestine
  half-life: 161 min
[2]; iv, 3 mg/kg, t1/2 Obs, mice, IV 3 mg/kg PDN, kidney
  half-life: 186 min
[2]; iv, 3 mg/kg, t1/2 Obs, mice, IV 3 mg/kg PDN, lung
  half-life: 185 min
[2]; iv, 3 mg/kg, t1/2 Obs, mice, IV 3 mg/kg PDN, muscle
  half-life: 115 min
[2]; iv, 3 mg/kg, t1/2 Obs, mice, IV 3 mg/kg PDN, plasma
  half-life: 184 min
[2]; iv, 3 mg/kg, t1/2 Obs, mice, IV 3 mg/kg PDN, spleen
  half-life: 206 min
[2]; iv, 10 mg/kg
  AUC(0-inf): 4100 ng·h/mL
[2]; iv, 10 mg/kg, CLp Obs, mice, IV 10 mg/kg PDN, plasma
  clearance: 1.02 mL/min
[2]; iv, 10 mg/kg, Vdss Obs, mice, IV 10 mg/kg PDN, plasma
  Vd: 0.31 L
[2]; iv, 10 mg/kg, t1/2 Obs, mice, IV 10 mg/kg PDN, brain
  half-life: 203 min
[2]; iv, 10 mg/kg, t1/2 Obs, mice, IV 10 mg/kg PDN, heart
  half-life: 172 min
[2]; iv, 10 mg/kg, t1/2 Obs, mice, IV 10 mg/kg PDN, intestine
  half-life: 227 min
[2]; iv, 10 mg/kg, t1/2 Obs, mice, IV 10 mg/kg PDN, kidney
  half-life: 287 min
[2]; iv, 10 mg/kg, t1/2 Obs, mice, IV 10 mg/kg PDN, liver
  half-life: 216 min
[2]; iv, 10 mg/kg, t1/2 Obs, mice, IV 10 mg/kg PDN, lung
  half-life: 211 min
[2]; iv, 10 mg/kg, t1/2 Obs, mice, IV 10 mg/kg PDN, muscle
  half-life: 279 min
[2]; iv, 10 mg/kg, t1/2 Obs, mice, IV 10 mg/kg PDN, plasma
  half-life: 211 min
[2]; iv, 10 mg/kg, t1/2 Obs, mice, IV 10 mg/kg PDN, spleen
  half-life: 194 min
[2]; iv, 10 mg/kg, t1/2 in all other tissues, mice, IV 3 and 10 mg/kg PDN
  half-life: 102 to 288 min
[2]; iv, 10 mg/kg, terminal t1/2 in plasma, mice, IV 3 and 10 mg/kg PDN
  half-life: 186 to 210 min
[2]; iv, 10 mg/kg, total plasma clearance (CLp), mice, IV 3 and 10 mg/kg PDN
  clearance: 1.02 to 1.05 mL/min
[2]; iv, 10 mg/kg, volume of distribution at steady-state (Vdss), mice, IV 3 and 10 mg/kg PDN
  Vd: 0.28 to 0.31 L
[2]; po, 10 mg/kg
  AUC(0-inf): 3520 ng·h/mL
  CL/F: 1.18 mL/min
  Vd/F: 0.33 L
[2]; po, 10 mg/kg, mice, PO 10 mg/kg PDN, adipose
  Cmax: 547 ng/g
[2]; po, 10 mg/kg, mice, PO 10 mg/kg PDN, brain
  Cmax: 715 ng/g
[2]; po, 10 mg/kg, mice, PO 10 mg/kg PDN, heart
  Cmax: 3040 ng/g
[2]; po, 10 mg/kg, mice, PO 10 mg/kg PDN, intestine
  Cmax: 15400 ng/g
[2]; po, 10 mg/kg, mice, PO 10 mg/kg PDN, kidney
  Cmax: 5860 ng/g
[2]; po, 10 mg/kg, mice, PO 10 mg/kg PDN, liver
  Cmax: 240 ng/g
[2]; po, 10 mg/kg, mice, PO 10 mg/kg PDN, lung
  Cmax: 22600 ng/g
[2]; po, 10 mg/kg, mice, PO 10 mg/kg PDN, muscle
  Cmax: 1120 ng/g
[2]; po, 10 mg/kg, mice, PO 10 mg/kg PDN, plasma
  Cmax: 606 ng/mL
[2]; po, 10 mg/kg, mice, PO 10 mg/kg PDN, spleen
  Cmax: 8080 ng/g
[2]; po, 10 mg/kg, F (bioavailability) Obs, mice, PO 10 mg/kg PDN
  bioavailability: 85.6%
[2]; po, 10 mg/kg, Tmax Obs, mice, PO 10 mg/kg PDN, adipose
  Tmax: 1.5 h
